Source: patent publication US20240318141A1, “MATURATION AGENT” (Orizuru Therapeutics, Inc., priority 2021, published 2024)
Several values for one entry are separate records, joined by “and”; a condition that tells them apart may be missing. Equal values may be shown once.

Assays:
[1] = test system: non-endocrine cells in insulin-producing cell population (QHJI-I14s04 iPS cell line); experiment: Cisplatin or docetaxel treatment in step 6), then extended culture in basal medium containing EGF (Example 2); format: cell-based, human
Description: The differentiation of a QHJI-I14s04 iPS cell line into an insulin-producing cell population was induced by the three-dimensional culture method using a bioreactor according to steps 1) to 6) described above and the previous report (Nature Biotechnology 2014; 32: 1121-1133). Specifically, the iPS cells were subjected to the first culture in a medium (DMEM/1% B-27 (INS+)/Penicillin Streptomycin/dimethyl sulfoxide) containing differentiation-inducing factors (GSK3β inhibitor, ROCK inhibitor and low dose of activin A) under conditions causing action of insulin, and subsequently subjected to the second culture in a medium (DMEM/1% B-27 (INS−)/Penicillin Streptomycin/dimethyl sulfoxide) containing a differentiation-inducing factor (low dose of activin A) under conditions causing no action of insulin to obtain a definitive endoderm cell population. Further, a pancreatic endocrine progenitor cell population obtained by the induction of differentiation from the definitive endoderm cell population was cultured in a medium (Improved MEM/1% B-27 (INS+)/Penicillin Streptomycin) containing differentiation-inducing factors (ALK5 inhibitor II, T3, LDN, Y-secretase inhibitor RO, and ascorbic acid) and FGF receptor 1 inhibitor (PD-166866) to obtain an insulin-producing cell population.
An insulin-producing cell population obtained without the addition of cisplatin and docetaxel was used as a control cell population and subjected to extended culture in the same manner as above.
Marker protein expression (PDX1, CHGA, and Ki67) in each insulin-producing cell population before the start of and after the completion of extended culture was measured by flow cytometry. Samples after the completion of extended culture were collected by sampling three times from the same culture container. The number of cells was measured in an automatic cell counter at the time of sample preparation for flow cytometry, and the total number of cells per mL of the bioreactor was calculated. The number of CHGA-positive cells, the number of PDX1-positive and CHGA-negative cells, and the number of PDX1-negative and CHGA-negative cells were calculated from the obtained total number of cells and the flow cytometry results.

[2] = test system: insulin-producing cell population (QHJI-114s04 iPS cell line); details: induction of differentiation using medium supplemented with FGF receptor 1 inhibitor; see WO2019/208505; cited from earlier work
[3] = test system: non-endocrine cells in insulin-producing cell population (Ff-I14s04 iPS cell line); experiment: Extended culture of insulin-producing cell population in basal medium containing EGF (Example 1); format: cell-based, human
Description: The differentiation of a Ff-I14s04 iPS cell line into an insulin-producing cell population was induced by the three-dimensional culture method using a bioreactor and a multiwell plate according to steps 1) to 6) described above and the previous report (Nature Biotechnology 2014; 32: 1121-1133). Specifically, the iPS cells were subjected to the first culture in a medium (DMEM/1% B-27 (INS+)/Penicillin Streptomycin/dimethyl sulfoxide) containing differentiation-inducing factors (GSK3β inhibitor, ROCK inhibitor and low dose of activin A) under conditions causing action of insulin, and subsequently subjected to the second culture in a medium (DMEM/1% B-27 (INS−)/Penicillin Streptomycin/dimethyl sulfoxide) containing a differentiation-inducing factor (low dose of activin A) under conditions causing no action of insulin to obtain a definitive endoderm cell population. Further, a pancreatic endocrine progenitor cell population obtained by the induction of differentiation from the definitive endoderm cell population was cultured in a medium (Improved MEM/1% B-27 (INS+)/Penicillin Streptomycin) containing differentiation-inducing factors (ALK5 inhibitor II, T3, LDN, γ-secretase inhibitor RO, and ascorbic acid) and FGF receptor 1 inhibitor (PD-166866) to obtain an insulin-producing cell population. The exchange from the bioreactor to the multiwell plate was carried out in step 6).
The insulin-producing cell population was subjected to extended culture for 4 weeks in a basal medium (MCDB131/20 mM Glucose/NaHCO3/FAF-BSA/ITS-X/Glutamax/Penicillin Streptomycin). EGF, when added for the purpose of promoting the proliferation of unintended cells, was added at 50 ng/ml (final concentration) to the basal medium for culture.
Marker protein expression (PDX1 and CHGA) in the insulin-producing cell population before the start of and after the completion of extended culture was measured by flow cytometry. Respective samples were collected by sampling from separate culture containers. The number of cells was measured in an automatic cell counter at the time of sample preparation for flow cytometry, and the total number of cells per well of the multiwell plate was calculated. The number of CHGA-positive cells, the number of PDX1-positive and CHGA-negative cells, and the number of PDX1-negative and CHGA-negative cells were calculated from the obtained total number of cells and the flow cytometry results.

[4] = after extended culture 4 weeks, EGF present, average of three samplings
[5] = after extended culture 4 weeks, EGF present, single samplings
[6] = after extended culture involving EGF, with respect to control cell population
[7] = s6d11 (before extended culture); 3 μM cisplatin or 1 μM docetaxel for 7 days from day 4 of step 6)
[8] = after extended culture 4 weeks, EGF present (50 ng/ml)
[9] = extended culture in basal medium containing EGF

## N.N.[Cl][Pt][Cl] [Cisplatin, cisplatin]
[1]; [4]
  The number of cells CHGA+, average: 23 ×10^4 cells/mL
  The number of cells PDX+/CHGA−, average: 97 ×10^4 cells/mL
  The number of cells PDX−/CHGA−, average: 5.4 ×10^4 cells/mL
  Total number of cells, average: 125 ×10^4 cells/mL
[1]; [5]
  The number of cells CHGA+: 24 ×10^4 cells/mL and 21 ×10^4 cells/mL
  The number of cells PDX+/CHGA−: 97 ×10^4 cells/mL and 84 ×10^4 cells/mL and 110 ×10^4 cells/mL
  The number of cells PDX−/CHGA−: 4.5 ×10^4 cells/mL and 4.4 ×10^4 cells/mL and 7.2 ×10^4 cells/mL
  Total number of cells: 125 ×10^4 cells/mL and 109 ×10^4 cells/mL and 141 ×10^4 cells/mL
[1]; [6]
  proportion of PDX1-negative and CHGA-negative (PDX1−/CHGA−) cells: drastically decreased
  proportion of PDX1-positive and CHGA-negative (PDX1+/CHGA−) cells: no large change
[1]; extended culture involving EGF
  total number of cells after extended culture (in words): increased
[1]; [7]
  The number of cells CHGA+: 88 ×10^4 cells/mL
  The number of cells PDX+/CHGA−: 2.7 ×10^4 cells/mL
  The number of cells PDX−/CHGA−: 0.3 ×10^4 cells/mL
  Total number of cells: 91 ×10^4 cells/mL
[1]; with respect to control cell population
  number of CHGA-positive endocrine cells after extended culture (in words): not changed

## COc1cc(OC)cc(-c2cc3cnc(N)nc3nc2NC(=O)NC(C)(C)C)c1 [PD-166866, 1-[2-amino-6-(3,5-dimethoxyphenyl)-pyrido(2,3-d)pyrimidin-7-yl]-3-tert-butylurea]
[2]
  abundance of CHGA-negative and Ki67-positive (CHGA−/Ki67+) cells (in words): drastically reduced

## EGF: epidermal growth factor added at 50 ng/ml to basal medium to promote proliferation of unintended cells
[3]; [8]
  The number of cells CHGA+: 128 ×10^4 cells/well and 123 ×10^4 cells/well
  The number of cells PDX+/CHGA−: 27 ×10^4 cells/well and 32 ×10^4 cells/well
  Total number of cells: 198 ×10^4 cells/well and 222 ×10^4 cells/well and 281 ×10^4 cells/well
[3]; [9]
  number of CHGA-positive endocrine cells (in words): no large change
  proportions of PDX1+/CHGA− and PDX1−/CHGA− non-endocrine cells: markedly increased
  total number of cells after extended culture (in words): increased
